Experiments:
[1] = target: monoclonal antibody from hybridoma 1C1 H2 A5; assay: Competitive ELISA of platinum compounds for binding to 1C1 H2 A5 monoclonal antibody; set-up: species or system mouse; settings: for concentration of agent which decreased the antibody binding to 50% of control: MOAB 1C1 H2 A5, immobilized DACH Pt complex in microtiter wells
Experimental: A DACH Pt complex was immobilized on the surface of microtiter wells.
A DACH Pt complex was immobilized on the surface of microtiter wells, to which MOAB binding was measured.
A competitive ELISA assay using monoclonal antibody specific for platinum (II) complex was performed. Monoclonal antibody from hybridoma 1C1 H2 A5 was added to microtiter wells having an immobilized DACH Pt complex. The MOAB was added either with no free platinum complex (control) or with increasing amounts of free MIDP platinum complex. Additionally, three compounds (designated A, B and C), whose identities were best unknown at that time, were added in parallel to the MIDP competition study. As shown in FIG. 10 the competition of compound A was quite similar to that of MIDP. Compound B (FIG. 11) was less similar to MIDP and compound C (FIG. 12) was least like MIDP although still being inhibitory of MOAB binding. The concentration of each agent which decreased the antibody binding to 50% of control was: MIDP=lug; A=2ug; B=4ug and C=200ug.

[2] = tested on: L1210 leukemia; settings: mice, multi-dose administration; cited from earlier work
[3] = tested on: human breast carcinoma cells (MCF-7); assay: MTT assay; cytotoxicity on MCF-7 breast carcinoma cells; format: cell-based; settings: MCF-7, 72 hrs
Experimental: Eight thousand MCF-7 cells were seeded per well and an MTT dye viability test performed.
In order to determine whether the MIDP/MOAB complex retained antiproliferative activity against cells in culture, the antibody (2 mg) was incubated with 200 ug of MIDP platinum complex for 24 hrs. The MOAB/MIDP solution was then dialyzed for 4 hrs at 4° C. against phosphate-buffered saline (PBS). The dialysate was then analyzed for total platinum by atomic absorption spectrometry. The monoclonal antibody/MIDP complex was then added to human breast carcinoma cells (MCF-7) in concentrations between 0.01 and 10 ug Pt/ml. As a control on the same plates, MIDP was also added at equal platinum concentrations. At 72 hrs after treatment, the wells were assessed for viable cells by MTT assay.
**Cell survival was determined using the tetrazolium dyebinding method
(MTT) which dye reacts only with living cells.

[4] = tested on: cells resistant to cisplatin; settings: cited from earlier work
[5] = tested on: B16 melanoma; settings: mice, multi-dose administration; cited from earlier work
[6] = in vivo; cited from earlier work

Row | Compound | concentration of agent which decreased the antibody binding to 50% of control [1] | binding to the antibody relative to compound C ([1]; relative to compound C) | amount needed to compete at a level with MIDP ([1]; relative to MIDP) | treatment of L1210 leukemia [2] | Percent of Control Cell survival ([3]; MIDP concentration 0.019 ug/ml) | Percent of Control Cell survival ([3]; MIDP concentration 0.039 ug/ml) | Percent of Control Cell survival ([3]; MIDP concentration 0.078 ug/ml) | Percent of Control Cell survival ([3]; MIDP concentration 0.156 ug/ml) | Percent of Control Cell survival ([3]; MIDP concentration 0.312 ug/ml) | Percent of Control Cell survival ([3]; MIDP concentration 0.625 ug/ml) | Percent of Control Cell survival ([3]; MIDP concentration 1.25 ug/ml) | Percent of Control Cell survival ([3]; MIDP concentration 2.5 ug/ml) | Percent of Control Cell survival ([3]; MIDP concentration 5 ug/ml) | Percent of Control Cell survival ([3]; MIDP concentration 10 ug/ml) | concentration required for 50% inhibition of cell growth ([3]; MTT, platinum concentration) | cross-resistance [4] | treatment of B16 melanoma [5] | renal toxicity [6]
1 | NC1CCCCC1N.O=C([O-])C1(C(=O)[O-])CCC1.[Pt+2] [Compound B, DACH Pt(II) 1,1-dicarboxylatocyclobutane] | 4 µg | about 50 fold | – | – | – | – | – | – | – | – | – | – | – | – | – | – | – | –
2 | N.N.O=C([O-])C1(C(=O)[O-])CCC1.[Pt+2] [Compound C, diamine Pt(II) 1,1-dicarboxylatocyclobutane] | 200 µg | – | 100-200 times | – | – | – | – | – | – | – | – | – | – | – | – | – | – | –
3 | CN(CC(=O)[O-])CC(=O)[O-].NC1CCCCC1N.[Pt+2] [MIDP, methylimino-diacetato-1,2-diaminocyclohexane platinum (II)] | 2 µg | – | – | curative | 86.9% | 84.3% | 72.4% | 45.5% | 32.3% | 17.0% | 18.5% | 15.2% | 10.8% | 8.3% | 0.15 µg/mL | not to display cross-resistance | curative | does not induce renal toxicity

— patent publication US5053226A, “Monoclonal antibodies binding platinum complexes” (Board of Regents, The University of Texas System, priority 1987, dated 1991)
